Key:
[1] = Mixed micelles with bile salts: macroscopic aspect after reconstitution; assay type: physicochemical; conditions: for Aspect of the solution after reconstitution: PBS57 200 µg/mL; for Macroscopic observation right after reconstitution with 5% glucose: PBS57 50 µg/mL, ratio bile salt / PBS57 1/1
Experimental: The mixed-micelle solution manufacturing process requires co-solubilization of the lipid and the bile salt into a solvent (ethanol) that is then evaporated before the final aqueous medium is added to obtain the mixed-micellar solution. A 5% glucose solution was used as the aqueous reconstitution medium here.
Both sodium taurocholate and deoxycholate were tested. A first indication that the mixed aggregates are truly formed is the clear aspect of the solution.
PBS57 concentration in the above 2 experiments was 50 µg/mL. The ratio bile salt / PBS57 was here 1/1.
Solutions of PBS57 at 200 µg/mL associated (equimolar ratio) to sodium taurocholate or sodium deoxycholate were manufactured by the same protocol.

[2] = Micelle to vesicle phase transition upon dilution: aspect; assay type: physicochemical; conditions: mixed micellar solution from sodium taurocholate and PBS57 (50 µg/mL)
Experimental: It is well established that phospholipids/bile salt mixed aggregates are going through a phase transition to form vesicles (liposomes) once diluted.
The same experiment was carried out on a mixed micellar solution obtained from sodium taurocholate and PBS57 (50 µg/mL).

[3] = water

Row | Aspect of the solution after reconstitution ([1]; equimolar ratio to sodium deoxycholate) | Aspect of the solution after reconstitution ([1]; equimolar ratio to sodium taurocholate) | Macroscopic observation right after reconstitution with 5% glucose ([1]; excipient Taurocholate) | Aspect upon dilution [2] | Thermodynamic aqueous solubility [3] | Molecule | Macroscopic observation right after reconstitution with 5% glucose ([1]; excipient Deoxycholate)
1 | perfectly clear | perfectly clear | Slightly turbid | slightly turbid suspension |  | CCCCCCCC/C=C\CCCCCCCCCCCCCC(=O)N[C@@H](CO[C@H]1O[C@H](CNC(C)=O)[C@H](O)[C@H](O)[C@H]1O)[C@H](O)[C@H](O)CCCCCCCCCCCCCC [PBS57] | Turbid with large aggregates, flocculation slowly turning to sedimentation
2 |  |  |  |  | below 5 µg/mL | α-galactosylceramide [α-GC] | 

— EP2060252A1, “New formulation of galactosylceramide derivatives” (Wittycell, priority 2007, dated 2009)
